Experiments:
[1] = tested on: Human immunodeficiency virus 1; assay: Antiviral activity against HIV-1 K103N mutant virus.; format: functional
[2] = tested on: Human immunodeficiency virus 1; assay: Compound was evaluated for antiviral activity against L100I mutant virus; format: functional
[3] = tested on: Human immunodeficiency virus 1; assay: Compound was evaluated for the inhibition of human plasma protein binding adjusted (PB Adj) wild-type RF strain of HIV-1; format: functional; details: Human immunodeficiency virus 1, Plasma
[4] = tested on: Human immunodeficiency virus 1; assay: Antiviral activity was evaluated for the inhibition of wild-type RF strain of HIV-1 in an in vitro enzyme assay.; format: functional
[5] = tested on: Human immunodeficiency virus 1; assay: Antiviral activity toward K103N mutant HIV-1 virus as protein binding adjusted (PB adj).; format: functional
[6] = target: Human immunodeficiency virus type 1 reverse transcriptase (Human immunodeficiency virus 1, UniProt Q72547); assay: Inhibition of HIV-1 reverse transcriptase.
[7] = tested on: Human immunodeficiency virus 1; assay: Potency of second-generation NNRTIs against Mutant HIV-1 sV179D/L100I/Y181C free drug; format: functional
[8] = tested on: Human immunodeficiency virus 1; assay: Potency of second-generation NNRTIs against Mutant HIV-1 K103N plasma; Vlaue ranges from 3400-8100; format: functional
[9] = tested on: Human immunodeficiency virus 1; assay: Potency of second-generation NNRTIs against Mutant HIV-1 sV179D/L100I/Y181C; format: functional
[10] = tested on: Human immunodeficiency virus 1; assay: Potency of second-generation NNRTIs against Mutant HIV-1 K103N free drug; format: functional
[11] = tested on: Human immunodeficiency virus 1; assay: Potency of second-generation NNRTIs against Mutant HIV-1 sL100I; format: functional
MT2 [12] = assay: Antiviral activity of Protein Binding of compound was evaluated for E virus expressed MT-2 by yield; format: functional, Human immunodeficiency virus 1; details: Homo sapiens
[13] = tested on: Human immunodeficiency virus 1; assay: Compound was evaluated for the inhibition of wilde-type RF strain of HIV-1; format: functional
[14] = tested on: Human immunodeficiency virus 1; assay: In vitro antiviral activity against HIV-1 (L100I).; format: functional
Homo sapiens [15] = species on record: Homo sapiens; assay: percentage in human serum; value ranges from -0.2-0.5; format: functional
MT2 [16] = assay: Antiviral activity of Protein Binding of compound was evaluated for RF virus expressed MT-2 by yield; format: functional, Human immunodeficiency virus 1; details: Homo sapiens
[17] = percentage in tissue culture medium
[18] = tested on: Human immunodeficiency virus 1; assay: Potency of second-generation NNRTIs against Mutant HIV-1 K103N; format: functional
[19] = tested on: Human immunodeficiency virus 1; assay: Potency of second-generation NNRTIs against Mutant HIV-1 sL100I plasma; Value ranges from 6600-15700; format: functional
[20] = tested on: Human immunodeficiency virus 1; assay: Antiviral activity of Protein Binding of compound was evaluated for Thai 9466 virus expressed PBMC by P24; format: functional
[21] = tested on: Human immunodeficiency virus 1; assay: Potency of second-generation NNRTIs against Mutant HIV-1 sL100I free drug; format: functional
[22] = tested on: Human immunodeficiency virus 1; assay: Antiviral activity of Protein Binding of compound was evaluated for A 018C virus expressed PBMC by P24; format: functional
MT2 [23] = assay: Antiviral activity of Protein Binding of compound was evaluated for HIV-2 virus expressed MT-2 by yield; format: functional, Human immunodeficiency virus 2; details: Homo sapiens
[24] = tested on: Human immunodeficiency virus 1; assay: Potency of second-generation NNRTIs against Mutant HIV-1 sV179D/L100I/Y181C plasma; value ranges from 130000-309500; format: functional
MT2 [25] = assay: Antiviral activity of Protein Binding of compound was evaluated for PB shift virus expressed MT-2 by RNA; format: functional, Human immunodeficiency virus 1; details: Homo sapiens
MT2 [26] = assay: Antiviral activity of Protein Binding of compound was evaluated for RF virus expressed MT-2 by RNA; format: functional, Human immunodeficiency virus 1; details: Homo sapiens
[27] = tested on: Human immunodeficiency virus 1; assay: Potency against Mutant HIV-1 sV179D/L100I/Y181C; format: functional
Homo sapiens [28] = species on record: Homo sapiens; assay: percentage of the free compound in tissue culture medium; format: functional
MT2 [29] = assay: Protein Binding was evaluated by PB shift in MT-2 by RNA assay; format: functional; details: Homo sapiens
[30] = tested on: Human immunodeficiency virus 1; assay: Antiviral activity against Thai 9466, a wild-type clinical strain of HIV in PBMC by P24 assay; format: functional
[31] = tested on: Human immunodeficiency virus 1; assay: Calculated Potency against Mutant HIV-1 K103N; format: functional
[32] = tested on: Human immunodeficiency virus 1; assay: Plasma Potency against Mutant HIV-1 K103N; format: functional; details: Human immunodeficiency virus 1, Plasma
[33] = tested on: Human immunodeficiency virus 1; assay: Potency against Mutant HIV-1 sL100I; format: functional
[34] = tested on: Human immunodeficiency virus 1; assay: Calculated Potency against Mutant HIV-1 sL100I; format: functional
[35] = tested on: Human immunodeficiency virus 1; assay: Plasma Potency against Mutant HIV-1 sV179D/L100I/Y181C; format: functional
MT2 [36] = assay: Antiviral activity against HIV-2 in MT-2 cells by yield assay; format: functional; details: Homo sapiens
MT2 [37] = assay: Antiviral activity against RF strain of HIV in MT-2 cells by yield assay; format: functional; details: Homo sapiens
[38] = tested on: Human immunodeficiency virus 1; assay: Antiviral activity against A018C, Zidovudine resistant clinical strain of HIV in PBMC by P24 assay; format: functional
[39] = tested on: Human immunodeficiency virus 1; assay: Compound was evaluated for the inhibition of wide-type RF strain of HIV-1; format: functional
[40] = tested on: Human immunodeficiency virus 1; assay: Plasma Potency against Mutant HIV-1 sL100I; format: functional; details: Human immunodeficiency virus 1, Plasma
[41] = tested on: Human immunodeficiency virus 1; assay: Plasma antiviral activity was evaluated for RF strain of HIV-1; format: functional
[42] = tested on: Human immunodeficiency virus 1; assay: Potency against Mutant HIV-1 K103N; format: functional
[43] = tested on: Human immunodeficiency virus 1; assay: Calculated Potency against Mutant HIV-1 sV179D/L100I/Y181C; format: functional
Homo sapiens [44] = species on record: Homo sapiens; assay: percentage of the free compound in human serum; format: functional
MT2 [45] = assay: Antiviral activity against RF strain of HIV in MT-2 cells by RNA assay; format: functional; details: Homo sapiens
[46] = tested on: Human immunodeficiency virus 1; assay: The compound was evaluated for the effect of human plasma protein binding on antiviral efficacy; format: functional; details: Human immunodeficiency virus 1, Plasma

Question: For `O=C1Nc2ccc(F)c(Cl)c2[C@@](C#Cc2ccccn2)(C(F)(F)F)N1`, which IC90 ([1]; Human immunodeficiency virus 1) is on record?
Answer: 0.073 µM

Question: And the IC90 [2]?
Answer: 0.044 µM

Question: What about the IC90 [3] of the same compound?
Answer: 0.041 µM

Question: And the IC90 [4]?
Answer: 0.0023 µM

Question: And the IC90 [5]?
Answer: 1.31 µM

Question: What about the IC50 [6] of the same compound?
Answer: 0.08 µM

Question: For `O=C1Nc2ccc(Cl)cc2[C@@](C#CC2CC2)(C(F)(F)F)O1` [EFAVIRENZ], which IC90 [7] is on record?
Answer: 0.65 µM

Question: And the IC90 [8]?
Answer: 8.1 µM

Question: What about the IC90 [9] of the same compound?
Answer: 2.4 µM

Question: What about the IC90 ([1]; Human immunodeficiency virus 1) of the same compound?
Answer: 0.064 µM

Question: And the IC90 [10]?
Answer: 0.017 µM

Question: What about the IC90 [11] of the same compound?
Answer: 0.12 µM

Question: What about the IC90 (MT2 [12]) of the same compound?
Answer: 0.0028 µM

Question: And the IC90 [13]?
Answer: 0.0017 µM

Question: And the IC90 [14]?
Answer: 0.077 µM

Question: What about the Free (Homo sapiens [15]) of the same compound?
Answer: 0.5%

Question: And the IC90 (MT2 [16])?
Answer: 0.0024 µM

Question: And the Free [17]?
Answer: 27%

Question: What about the IC90 [18] of the same compound?
Answer: 0.064 µM

Question: What about the IC90 [5] of the same compound?
Answer: 1.06 µM

Question: And the IC90 [19]?
Answer: 15.7 µM

Question: What about the IC90 [20] of the same compound?
Answer: 0.0085 µM

Question: What about the IC90 [21] of the same compound?
Answer: 0.033 µM

Question: And the IC90 [22]?
Answer: 0.0028 µM

Question: What about the IC90 (MT2 [23]) of the same compound?
Answer: > 3 µM

Question: And the IC90 [24]?
Answer: 310 µM

Question: And the IC90 (MT2 [25])?
Answer: 0.017 µM

Question: And the IC90 (MT2 [26])?
Answer: 0.0017 µM

Question: Which IC90 [27] does the source give for `O=C1Nc2ccc(Cl)cc2[C@@](C#CC2CC2)(C(F)(F)F)N1` (stereo in doubt) here?
Answer: 0.19 µM

Question: And the Free (Homo sapiens [28])?
Answer: 31%

Question: What about the IC90 [1] of the same compound?
Answer: 0.01 µM

Question: What about the IC90 (MT2 [29]) of the same compound?
Answer: 0.017 µM

Question: And the IC90 [30]?
Answer: 0.005 µM

Question: And the IC90 [31]?
Answer: 0.0031 µM

Question: What about the IC90 [32] of the same compound?
Answer: 0.21 µM

Question: And the IC90 [33]?
Answer: 0.013 µM

Question: And the IC90 [34]?
Answer: 0.004 µM

Question: What about the IC90 [35] of the same compound?
Answer: 3.9 µM

Question: And the IC90 (MT2 [36])?
Answer: > 2.8 µM

Question: And the IC90 (MT2 [37])?
Answer: 0.0027 µM

Question: What about the IC90 [38] of the same compound?
Answer: 0.0025 µM

Question: And the IC90 [39]?
Answer: 0.002 µM

Question: And the IC90 [40]?
Answer: 0.27 µM

Question: What about the IC90 [41] of the same compound?
Answer: 0.04 µM

Question: And the IC90 [42]?
Answer: 0.01 µM

Question: What about the IC90 [43] of the same compound?
Answer: 0.059 µM

Question: And the Free (Homo sapiens [44])?
Answer: 1.5%

Question: And the IC90 (MT2 [45])?
Answer: 0.002 µM

Question: Which results are given for `CCC#C[C@]1(C(F)(F)F)NC(=O)Nc2ccc(F)c(F)c21`?
Answer: IC90 ([1]; Human immunodeficiency virus 1): 0.014 µM; IC90 [2]: 0.018 µM; IC90 [4]: 0.0015 µM; IC90 [5]: 0.093 µM; IC90 [46]: 0.01 µM; IC50 [6]: 0.074 µM

Source: ChEMBL document CHEMBL1133185, “Inhibition of clinically relevant mutant variants of HIV-1 by quinazolinone non-nucleoside reverse transcriptase inhibitors” (J Med Chem, 2000)
